Marks after values point to notes of the source that are not given here.
How the values were obtained:
[1] = test system: newly ecdysed fifth instar larvae of G. pyloalis; test: Topical bioassay; assay type: in vivo, Glyphodes pyloalis Walker; conditions: Glyphodes pyloalis
Procedure: (§1) The insects used in the present application is Glyphodes pyloalis Walker (Lepidoptera: Pyralidae) which was collected from infested mulberry orchards in the vicinity of Rasht, Iran. Mass rearing of insects was carried out in the laboratory under controlled conditions at 25±1° C., 70±5% RH and 16:8 L:D. Newly-ecdysed fifth instar larvae of G. pyloalis were used for the bioassay experiments. The Glyphodes pyloalis Walker hereinafter is referred to as G. pyloalis.
To determine the efficacy of the encapsulated nano-IMI prepared using ethanol, a topical bioassay was performed. In the preliminary tests, 5 concentrations of bulk and nano-IMI were tested. […] Fifty larvae per concentration were used for all experiments and each experiment was replicated 4 times; 1 μl of the desired concentration was topically applied to the metathoracic tergum. The controls received 1 μl of ethanol in the same way. The treated larvae were allowed to eat fresh leaves. After 24, 48, 72 and 96 h, the numbers of dead larvae were recorded.

[2] = test system: newly-ecdysed fifth instar larvae of G. pyloalis; test: Leaf dip bioassay; assay type: in vivo, Glyphodes pyloalis Walker; conditions: for mortality at 50 ppm / mortality at 80 ppm / mortality at 126 ppm / mortality at 200 ppm / mortality at 316 ppm / mortality at 500 ppm: Glyphodes pyloalis, foliar
Procedure: as §1
The toxicity of the encapsulated imidacloprid diluted in water for the newly-ecdysed fifth instar larvae of G. pyloalis was evaluated using leaf dip bioassay. The technical imidacloprid was dissolved in acetone and diluted to generate 6 serial dilutions with distilled water. Mulberry leaf discs with diameters of 3.5 cm were prepared, so that each petiole was placed in a vial containing water for providing moisture to the leaf discs for several days. These discs were then immersed in the dilutions for 45 seconds. Mortality was assessed after the treated larvae were maintained at 25±1° C., 70±10 R.H. for 24, 48, 72, 96 and 120 hours.

[3] = Photocatalytic degradation of indoxacarb under UV light; assay type: physicochemical
[4] = Photo degradation of indoxacarb in the batch reactor under natural light

Q: Which results are given for `O=[N+]([O-])NC1=NCCN1Cc1ccc(Cl)nc1` [Imidacloprid]?
A: mortality at 22 ppm ([1]; 24 h after treatment): 18.1%; mortality at 22 ppm ([1]; 48 h after treatment): 20%; mortality at 22 ppm ([1]; 72 h after treatment): 22%; mortality at 22 ppm ([1]; 96 h after treatment): 24%; mortality at 32 ppm ([1]; 24 h after treatment): 33%; mortality at 32 ppm ([1]; 48 h after treatment): 35%; mortality at 32 ppm ([1]; 72 h after treatment): 36.5%; mortality at 32 ppm ([1]; 96 h after treatment): 38.2%; mortality at 47.5 ppm ([1]; 24 h after treatment): 50%; mortality at 47.5 ppm ([1]; 48 h after treatment): 52.1%; mortality at 47.5 ppm ([1]; 72 h after treatment): 54%; mortality at 47.5 ppm ([1]; 96 h after treatment): 56%; mortality at 60 ppm ([1]; 24 h after treatment): 76%; mortality at 60 ppm ([1]; 48 h after treatment): 78%; mortality at 60 ppm ([1]; 72 h after treatment): 80.4%; mortality at 60 ppm ([1]; 96 h after treatment): 82%; mortality at 50 ppm ([2]; 24 h after treatment): 2.5 ± 2%; mortality at 50 ppm ([2]; 48 h after treatment): 15.6%; mortality at 50 ppm ([2]; 72 h after treatment): 27%; mortality at 50 ppm ([2]; 96 h after treatment): 42.5%; mortality at 50 ppm ([2]; 120 h after treatment): 46.2 ± 2.39%; mortality at 80 ppm ([2]; 24 h after treatment): 8.82%; mortality at 80 ppm ([2]; 48 h after treatment): 23.8%; mortality at 80 ppm ([2]; 72 h after treatment): 39.6 ± 3.33%; mortality at 80 ppm ([2]; 96 h after treatment): 57.8 ± 3.17%; mortality at 80 ppm ([2]; 120 h after treatment): 58.8 ± 3.75%; mortality at 126 ppm ([2]; 24 h after treatment): 21.9 ± 3.07%; mortality at 126 ppm ([2]; 48 h after treatment): 43.8 ± 2.39%; mortality at 126 ppm ([2]; 72 h after treatment): 58.6 ± 3.41%; mortality at 126 ppm ([2]; 96 h after treatment): 76.2 ± 3.17%; mortality at 126 ppm ([2]; 120 h after treatment): 78.8 ± 3.75%; mortality at 200 ppm ([2]; 24 h after treatment): 34.2 ± 2.09%; mortality at 200 ppm ([2]; 48 h after treatment): 55%; mortality at 200 ppm ([2]; 72 h after treatment): 71.7 ± 2.04%; mortality at 200 ppm ([2]; 96 h after treatment): 78.8 ± 2.39%; mortality at 200 ppm ([2]; 120 h after treatment): 80%; mortality at 316 ppm ([2]; 24 h after treatment): 39.2 ± 4.13%; mortality at 316 ppm ([2]; 48 h after treatment): 60%; mortality at 316 ppm ([2]; 72 h after treatment): 75%; mortality at 316 ppm ([2]; 96 h after treatment): 84.2 ± 3.37%; mortality at 316 ppm ([2]; 120 h after treatment): 86.2 ± 2.39%; mortality at 500 ppm ([2]; 24 h after treatment): 57.5 ± 2.04%; mortality at 500 ppm ([2]; 48 h after treatment): 77.6 ± 4%; mortality at 500 ppm ([2]; 72 h after treatment): 86.1 ± 1.63%; mortality at 500 ppm ([2]; 96 h after treatment): 100%; mortality at 500 ppm ([2]; 120 h after treatment): 100%

Q: Which results are given for `COC(=O)N(C(=O)N1CO[C@@]2(C(=O)OC)Cc3cc(Cl)ccc3C2=N1)c1ccc(OC(F)(F)F)cc1` [Indoxacarb, lndoxacarb]?
A: % degradation of indoxacarb ([3]; 10 ppm, 1 h): 2.3%; % degradation of indoxacarb ([3]; 10 ppm, 3 h): 7.44%; % degradation of indoxacarb ([3]; 10 ppm, 6 h): 10.26%; % degradation of indoxacarb ([3]; 10 ppm, 18 h): 13.07%; % degradation of indoxacarb ([3]; 20 ppm, 1 h): 6.24%; % degradation of indoxacarb ([3]; 20 ppm, 3 h): 12.49%; % degradation of indoxacarb ([3]; 20 ppm, 6 h): 18.9%; % degradation of indoxacarb ([3]; 20 ppm, 18 h): 22.03%; % degradation of indoxacarb ([3]; 30 ppm, 1 h): 9.32%; % degradation of indoxacarb ([3]; 30 ppm, 3 h): 13.07%; % degradation of indoxacarb ([3]; 30 ppm, 6 h): 23.34%; % degradation of indoxacarb ([3]; 30 ppm, 18 h): 25.21%; % degradation of indoxacarb ([3]; 40 ppm, 1 h): 11.47%; % degradation of indoxacarb ([3]; 40 ppm, 3 h): 15.04%; % degradation of indoxacarb ([3]; 40 ppm, 6 h): 24.26%; % degradation of indoxacarb ([3]; 40 ppm, 18 h): 25.39%; % degradation of indoxacarb ([3]; 50 ppm, 1 h): 9.23%; % degradation of indoxacarb ([3]; 50 ppm, 3 h): 13.34%; % degradation of indoxacarb ([3]; 50 ppm, 6 h): 21.02%; % degradation of indoxacarb ([3]; 50 ppm, 18 h): 21.02%; maximum amount of indoxacarb removed / degraded ([3]; after approximately 18 h, over all concentrations (10-50 ppm)): about 25%; % photo degradation of indoxacarb ([4]; 10 ppm, 2 d): 16.33%; % photo degradation of indoxacarb ([4]; 10 ppm, 4 d): 19.02%; % photo degradation of indoxacarb ([4]; 10 ppm, 6 d): 21.21%; % photo degradation of indoxacarb ([4]; 10 ppm, 8 d): 23.4%; % photo degradation of indoxacarb ([4]; 10 ppm, 10 d): 30.47%; % photo degradation of indoxacarb ([4]; 20 ppm, 2 d): 22.26%; % photo degradation of indoxacarb ([4]; 20 ppm, 4 d): 23.47%; % photo degradation of indoxacarb ([4]; 20 ppm, 6 d): 25.17%; % photo degradation of indoxacarb ([4]; 20 ppm, 8 d): 29.28%; % photo degradation of indoxacarb ([4]; 20 ppm, 10 d): 33.4%; % photo degradation of indoxacarb ([4]; 30 ppm, 2 d): 26.23%; % photo degradation of indoxacarb ([4]; 30 ppm, 4 d): 29.2%; % photo degradation of indoxacarb ([4]; 30 ppm, 6 d): 31.18%; % photo degradation of indoxacarb ([4]; 30 ppm, 8 d): 33.16%; % photo degradation of indoxacarb ([4]; 30 ppm, 10 d): 36.13%; % photo degradation of indoxacarb ([4]; 40 ppm, 2 d): 22.26%; % photo degradation of indoxacarb ([4]; 40 ppm, 4 d): 29.28%; % photo degradation of indoxacarb ([4]; 40 ppm, 6 d): 31.34%; % photo degradation of indoxacarb ([4]; 40 ppm, 8 d): 36.3%; % photo degradation of indoxacarb ([4]; 40 ppm, 10 d): 39.21%; % photo degradation of indoxacarb ([4]; 50 ppm, 2 d): 21.23%; % photo degradation of indoxacarb ([4]; 50 ppm, 4 d): 26.35%; % photo degradation of indoxacarb ([4]; 50 ppm, 6 d): 30.18%; % photo degradation of indoxacarb ([4]; 50 ppm, 8 d): 32.23%; % photo degradation of indoxacarb ([4]; 50 ppm, 10 d): 37.38%; % mortality ([2]; 0.25 ppm, 24 h after treatment): 21 ± 2.91^g %; % mortality ([2]; 0.25 ppm, 72 h after treatment): 56.4 ± 8.84^bcdef %; % mortality ([2]; 0.25 ppm, 96 h after treatment): 61 ± 8.73^bcdef %; % mortality ([2]; 0.25 ppm, 120 h after treatment): 62 ± 7.62^bcdef %; % mortality ([2]; 0.45 ppm, 24 h after treatment): 34 ± 10.29^efg %; % mortality ([2]; 0.45 ppm, 48 h after treatment): 47.9 ± 10^cdefg %; % mortality ([2]; 0.45 ppm, 72 h after treatment): 59 ± 19.97^bcdef %; % mortality ([2]; 0.45 ppm, 96 h after treatment): 63 ± 12.32^bcdef %; % mortality ([2]; 0.45 ppm, 120 h after treatment): 64 ± 12.67^bcdef %; % mortality ([2]; 0.82 ppm, 24 h after treatment): 34.32 ± 7.45^efg %; % mortality ([2]; 0.82 ppm, 48 h after treatment): 51.5 ± 9.25^cdefg %; % mortality ([2]; 0.82 ppm, 72 h after treatment): 63.58 ± 7.84^bcdef %; % mortality ([2]; 0.82 ppm, 96 h after treatment): 76 ± 2.73^abcd %; % mortality ([2]; 0.82 ppm, 120 h after treatment): 77 ± 2.23^abcd %; % mortality ([2]; 1.5 ppm, 24 h after treatment): 44.16 ± 8.22^defg %; % mortality ([2]; 1.5 ppm, 48 h after treatment): 62 ± 2.23^bcdef %; % mortality ([2]; 1.5 ppm, 72 h after treatment): 74.4 ± 2.58^abcd %; % mortality ([2]; 1.5 ppm, 96 h after treatment): 83 ± 2.23^abc %; % mortality ([2]; 1.5 ppm, 120 h after treatment): 83.6 ± 2.07^abc %; % mortality ([2]; 2.8 ppm, 24 h after treatment): 51.32 ± 8.9^cdefg %; % mortality ([2]; 2.8 ppm, 48 h after treatment): 68.82 ± 5.05^abcde %; % mortality ([2]; 2.8 ppm, 72 h after treatment): 76.66 ± 4.27^abcd %; % mortality ([2]; 2.8 ppm, 96 h after treatment): 88.32 ± 6.55^ab %; % mortality ([2]; 2.8 ppm, 120 h after treatment): 88.4 ± 6.57^ab %; % mortality ([2]; 4 ppm, 24 h after treatment): 55 ± 3.87^bcdefg %; % mortality ([2]; 4 ppm, 48 h after treatment): 71.98 ± 2.92^abcd %; % mortality ([2]; 4 ppm, 72 h after treatment): 88.32 ± 7.57^ab %; % mortality ([2]; 4 ppm, 96 h after treatment): 100%; % mortality ([2]; 4 ppm, 120 h after treatment): 100 ± 0^a %
